This is an account of results in article PMC6076925, “Identification of Digestive Enzyme Inhibitors from Ludwigia octovalvis (Jacq.) P.H.Raven” (Evidence-based Complementary and Alternative Medicine : eCAM, 2018).

In assay [1] the test system is α–glucosidases. As to the kind of experiment: α–glucosidase inhibition assay (crude intestinal enzyme, corn starch substrate). Particulars: for Inhibition percentage α–glucosidases: mean ± standard deviation; for IC50: pure compounds, intestinal rat enzyme, starch as substrate. Type of assay: biochemical, Wistar rats. The method, then:
The α–glucosidase assay was previously reported. In brief, corn starch (4 mg/mL) was digested by crude enzyme at 37°C during 10 minutes in a phosphate buffer pH 7 solution at a sample concentration of 0.6 mg/mL (dissolved in DMSO and water). Subsequently, released glucose was quantified by a glucose oxidase-based clinical reagent with the GOD–POD Trinder kit (Spinreact, Girona, Spain) following manufacturer's directions. All tests were performed in quadruplicate. Crude enzyme was obtained directly from healthy Wistar rats (12 h fasting). The small intestine was flushed several times with ice-cold isotonic buffer pH 7 and after the scraping of the mucosa, it was homogenized and stored at -20°C. Animal care and management were carried out under the guidelines of Mexican Official Standard NOM–062–ZOO–1999.
(§1) The logarithm of the concentration was plotted on the x-axis and the percentage of enzymatic inhibitory activity on the y-axis to obtain a semilogarithmic graphic.

Assay [2] deals with T1, lipase from porcine pancreas (Sus scrofa, UniProt P00591).
T1 construct: lipase from porcine pancreas (PPL type II, 100–500 units/mg, L3126); purchased Sigma–Aldrich L3126; host or cells: porcine pancreas
T1 sequence (P00591 1-450): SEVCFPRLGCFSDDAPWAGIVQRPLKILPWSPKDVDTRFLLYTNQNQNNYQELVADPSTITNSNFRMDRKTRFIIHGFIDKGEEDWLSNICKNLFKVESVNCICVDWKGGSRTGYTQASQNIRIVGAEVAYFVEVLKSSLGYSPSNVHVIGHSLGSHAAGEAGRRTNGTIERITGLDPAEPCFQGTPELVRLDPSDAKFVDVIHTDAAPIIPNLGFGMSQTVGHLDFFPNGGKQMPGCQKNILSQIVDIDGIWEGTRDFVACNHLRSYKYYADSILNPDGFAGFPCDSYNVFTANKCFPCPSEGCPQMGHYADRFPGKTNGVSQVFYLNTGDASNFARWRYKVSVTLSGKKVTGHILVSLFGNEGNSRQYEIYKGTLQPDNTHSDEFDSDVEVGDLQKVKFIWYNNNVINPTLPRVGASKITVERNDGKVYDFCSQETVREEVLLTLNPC
The experiment in a line: Pancreatic lipase inhibition assay (DMPTB/DTNB). The following applies: for inhibition at 250 µg/mL: sample at 0.25 mg/mL. In kind it is biochemical. The method, then: Pancreatic lipase inhibition assay was previously reported. Briefly, the absorbance of a mixture of DTNB 0.2 mM, DMPTB 0.8 mM, NaCl 0.1M, CaCl2 2 mM, Triton X–100 0.04%, porcine lipase 65 μg/mL, and the sample (dissolved in DMSO and water) at 0.25 mg/mL was followed with a Thermo Scientific Genesys 20 Visible Spectrophotometer (Fisher Scientific, 4001000, Hampton, NH) at 412 nm every 20 s for five minutes and plotted (Excel, Microsoft) to obtain initial velocity value. The lipase was prepared as a stock at 10 mg/mL in Tris–HCl 25 mM pH 6.2 with 0.1 M NaCl, SDS 2 mM, and 250 μL/mL of glycerol. A control assay without substrate was carried out to discard nonspecific reactions with DTMB. All reactions were tested by triplicate.
as §1

The target of another assay is maltase. Also on record: method as in doi:10.1016/j.foodchem.2010.03.075. The following applies: rat; read-out: IC50 inhibition of maltase; cited from earlier work.
The test system of assay [3] is α–glucosidases. The experiment in a line: Type of inhibition and Ki on α–glucosidases by Lineweaver–Burk plots (maltodextrin substrate). Type of assay: biochemical, Wistar rats. Particulars: for Type of enzymatic inhibition of α–glucosidases: Lineweaver–Burk plots. The method, then: (§2) The type of inhibition was determined quantifying the activity with and without inhibitor at different substrate concentrations (5–0.35 mg/mL for α–glucosidases and 0.05–0.2 μg/mL for pancreatic lipase) and comparing Lineweaver–Burk plots (inverse substrate concentration [S] and inverse reaction velocity V). In the case of the determination of α–glucosidase type of inhibition, the substrate was changed from corn starch to maltodextrin (MD100, Luzhou Bio–Chem Technology Co., Shandong, China), in order to have greater uniformity in the reaction.
Michaelis–Menten constant (Km) and apparent Km (Km^app) were obtained analysing the Lineweaver–Burk plots. These values allowed to obtain the inhibition constant (Ki) for competitive inhibitors using (2), where [I] represents inhibitor concentration.(2) Km^app=Km1+I/Ki

The target in another assay is sucrase. Also on record: method as in doi:10.1016/j.foodchem.2010.03.075. The following applies: rat; read-out: IC50 inhibition of sucrase; cited from earlier work.
The target of the next assay is T2, pancreatic lipase (Sus scrofa, UniProt P00591).
T2 construct: lipase from porcine pancreas (PPL type II, 100–500 units/mg, L3126); purchased Sigma–Aldrich L3126; host or cells: porcine pancreas
T2 sequence (P00591 1-450): T1 sequence (P00591 1-450)
The experiment in a line: Type of inhibition on pancreatic lipase by Lineweaver–Burk plots. Type of assay: biochemical, porcine. The method, then:
as §2

[4] abbreviates: mean ± standard deviation, read-out: Inhibition percentage Pancreatic lipase.

Turning to `C[C@H]1O[C@H](O[C@H]2[C@H](O)[C@@H](O)[C@@H](O[C@H]3[C@H](O)[C@@H](O)C(O)O[C@@H]3CO)O[C@@H]2CO)[C@H](O)[C@@H](O)[C@@H]1N[C@H]1C=C(CO)[C@@H](O)[C@H](O)[C@H]1O` (some centres unmarked) [Acarbose, acarbose, reference compound], in the assay with α–glucosidases [1] (evaluated at 5.8 µM), the “Inhibition percentage α–glucosidases” value is 50.0 ± 1.6∗ %.

As a reminder, the inhibition is the share of the control response that was lost under treatment. What is called IC50 is the concentration needed to halve the response being measured. In general, Ki refers to the dissociation constant of the complex between target and ligand, obtained from inhibition or displacement. A higher Ki goes with lower affinity. As to `CCOC(=O)c1cc(O)c(O)c(O)c1` [C1F1 (ethyl gallate), ethyl gallate], the inhibition at 250 µg/mL in assay [2] (setting [4]) was 23.2 ± 3%. The IC50 on maltase is 415 µM; against α–glucosidases [1], 832 µM; at sucrase, 660 µM. Besides, in the assay with α–glucosidases [3], the “Type of enzymatic inhibition of α–glucosidases” value was “competitive enzymatic inhibition”. The values for the inhibitory constant (Ki) on α–glucosidases [3] (inhibitor at 625 μM) and on α–glucosidases [3] (inhibitor at 1250 μM) were 636 µM and 315 µM, respectively. In addition, the “Inhibition percentage α–glucosidases” value in the assay on α–glucosidases [1] (sample at 0.6 mg/mL) came to 98.4 ± 2.0%.

In the case of `O=C(O)c1cc(O)c(O)c(O)c1` [C2F1 (gallic acid), gallic acid], the 50% inhibitory concentration (IC50) was 390 µM on maltase, 969 µM on α–glucosidases [1] and 130 µM at sucrase. Besides, the “Type of enzymatic inhibition of α–glucosidases” value in the assay with α–glucosidases [3] is recorded as “competitive enzymatic inhibition”. Besides, the Ki worked out at 436 µM at α–glucosidases [3] (inhibitor at 625 μM) and 208 µM at α–glucosidases [3] (inhibitor at 1250 μM). The “Inhibition percentage α–glucosidases” value with α–glucosidases [1] (sample at 0.6 mg/mL) is reported as 98.9 ± 0.6%.

Turning to `O=c1cc(-c2ccc(O)c(O)c2)oc2cc(O)c([C@@H]3O[C@H](CO)[C@@H](O)[C@H](O)[C@H]3O)c(O)c12` [C4F4–P (isoorientin), isoorientin], the “Type of enzymatic inhibition of pancreatic lipase” value on pancreatic lipase was “uncompetitive enzymatic inhibition”. In assay [2] (pure compound), the half-inhibitory concentration (IC50) was 201 µM. Besides, the inhibition at 250 µg/mL in assay [2] (setting [4]) is 55.1 ± 3.1%.

Regarding `O=c1cc(-c2ccc(O)c(O)c2)oc2cc(O)cc(O)c12` [Luteolin, reference compound], the IC50 against α–glucosidases [1] is 1260 µM; at α–glucosidases [1] (listed as luteolin), about 1260 µM. For the same compound, the “Inhibition percentage α–glucosidases” value in the assay with α–glucosidases [1] (sample at 0.6 mg/mL) is on record as 66.3 ± 5.6%.

Consider `CCCCCCCCCCC[C@@H](C[C@@H]1OC(=O)[C@H]1CCCCCC)OC(=O)[C@H](CC(C)C)NC=O` [Orlistat, orlistat, reference compound], for which the inhibition at 1.6 µM in assay [2] (evaluated at 1.6 µM, mean ± standard deviation, read-out: Inhibition percentage Pancreatic lipase) stood at 50 ± 2.6%.
